Experimental data from ChEMBL document CHEMBL1201862, “PubChem BioAssay data set” (2004).
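Interpolation was linear, between the two tested concentrations surrounding the appropriate level; five concentrations were tested over 48 hours in 96-well plates. GI50: concentration for 50% inhibition of growth.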 Activity calls are given as the source filed them. No stated cut-off is given here; in the data, active = GI50 up to about 1.1 µM and inactive = higher.

Experiments:
Assay in all cases: NCI-60 cell line screen, 48 h
SK-MEL-5 = system: SK-MEL-5
NCI-H460 = system: NCI-H460
CCRF-CEM = system: CCRF-CEM
MOLT-4 = system: MOLT-4
UACC-257 = system: UACC-257
RXF 393 = system: RXF 393
Malme-3M = system: Malme-3M
HCT-116 = system: HCT-116
T47D = system: T47D
SNB-19 = system: SNB-19
RPMI-8226 = system: RPMI-8226
HCC 2998 = system: HCC 2998
SF-268 = system: SF-268
SW-620 = system: SW-620
MCF7 = system: MCF7
SR = system: SR
SN12C = system: SN12C
SK-MEL-28 = system: SK-MEL-28
BT-549 = system: BT-549

Measured: GI50

COc1c(C)c2nc3ccccc3nc2c2c(O)ccnc12
inactive: SK-MEL-5 35.6 µM | NCI-H460 53.5 µM | CCRF-CEM > 100 µM | MOLT-4 > 100 µM | UACC-257 > 100 µM | RXF 393 19.3 µM | Malme-3M > 100 µM | HCT-116 > 100 µM | T47D 6.64 µM | SNB-19 36.6 µM | RPMI-8226 > 100 µM | HCC 2998 > 100 µM | SF-268 68.7 µM | SW-620 > 100 µM | MCF7 > 100 µM | SR > 100 µM | SN12C > 100 µM | SK-MEL-28 > 100 µM

CCOP(=O)(OCC)C1C(CO)OC(n2ccc(=O)[nH]c2=O)C1O (stereo not drawn)
inactive: SK-MEL-5 > 100 µM | NCI-H460 > 100 µM | CCRF-CEM > 10 µM | MOLT-4 > 10 µM | UACC-257 > 100 µM | RXF 393 > 100 µM | Malme-3M > 100 µM | HCT-116 > 100 µM | T47D > 100 µM | SNB-19 > 100 µM | RPMI-8226 > 100 µM | HCC 2998 78.7 µM | SF-268 > 100 µM | SW-620 > 100 µM | SR > 100 µM | BT-549 > 100 µM | SN12C > 100 µM | SK-MEL-28 > 100 µM

O=C1C2=Cc3ccccc3OC2(O)Oc2ccccc21 (stereo not drawn)
inactive: SK-MEL-5 > 100 µM | CCRF-CEM > 100 µM | MOLT-4 > 100 µM | UACC-257 > 100 µM | RXF 393 > 100 µM | Malme-3M > 100 µM | HCT-116 > 100 µM | T47D > 100 µM | RPMI-8226 > 100 µM | HCC 2998 > 100 µM | SF-268 > 100 µM | SW-620 > 100 µM | MCF7 > 100 µM | SR > 100 µM | SN12C > 100 µM | SK-MEL-28 > 100 µM

COc1cc(C2NCCC(c3ccccc3)(c3ccccc3)N2)cc(OC)c1OC (stereo not drawn)
inactive: SK-MEL-5 17.3 µM | NCI-H460 9.59 µM | CCRF-CEM 39.3 µM | MOLT-4 > 10 µM | UACC-257 18.2 µM | RXF 393 42.7 µM | Malme-3M 19.1 µM | HCT-116 4.43 µM | T47D 58.2 µM | SNB-19 55.7 µM | RPMI-8226 7.36 µM | HCC 2998 20.7 µM | SF-268 52.4 µM | SW-620 19 µM | MCF7 20.1 µM | SR 26.4 µM | SN12C 59.3 µM | SK-MEL-28 17 µM

Cc1ccc(/N=N/c2c(O)c(C(=O)Nc3ccccc3)cc3ccccc23)c([N+](=O)[O-])c1
inactive: SK-MEL-5 > 100 µM | CCRF-CEM > 100 µM | MOLT-4 > 100 µM | UACC-257 > 100 µM | RXF 393 > 100 µM | Malme-3M > 100 µM | HCT-116 > 100 µM | T47D > 100 µM | SNB-19 > 100 µM | RPMI-8226 > 100 µM | SF-268 > 100 µM | SW-620 > 100 µM | BT-549 > 100 µM | SN12C > 100 µM | SK-MEL-28 > 100 µM

O=C(CSCC(=O)N/N=C\c1cccc([N+](=O)[O-])c1)N/N=C\c1cccc([N+](=O)[O-])c1
inactive: SK-MEL-5 > 100 µM | NCI-H460 69.2 µM | CCRF-CEM > 100 µM | MOLT-4 > 100 µM | UACC-257 > 100 µM | RXF 393 49.8 µM | Malme-3M 21 µM | HCT-116 27.7 µM | T47D 34.1 µM | SNB-19 18 µM | RPMI-8226 > 100 µM | HCC 2998 30.9 µM | SF-268 39.9 µM | SW-620 > 100 µM | MCF7 38.5 µM | SR 69 µM | SN12C 68.9 µM | SK-MEL-28 > 100 µM

CC(C)=CCc1ccc2[nH]c3c(c2c1)C(=O)C(=O)C(C)=C3C(O)C(C)O (stereo not drawn)
inactive: SK-MEL-5 2.45 µM | NCI-H460 14.1 µM | CCRF-CEM 1.55 µM | MOLT-4 1.7 µM | UACC-257 2.06 µM | RXF 393 2.17 µM | Malme-3M 1.78 µM | HCT-116 1.78 µM | T47D 2.29 µM | SNB-19 17 µM | RPMI-8226 1.82 µM | HCC 2998 6.38 µM | SF-268 12.9 µM | SW-620 2.09 µM | MCF7 1.63 µM | SR 2.45 µM | SN12C 8.55 µM | SK-MEL-28 7.19 µM

c1ccc(C(NCC2CCO2)(c2ccccc2)c2ccccc2)cc1 (stereo not drawn)
inactive: SK-MEL-5 25.6 µM | NCI-H460 16.4 µM | CCRF-CEM 33.3 µM | MOLT-4 30.2 µM | UACC-257 19.4 µM | RXF 393 18.2 µM | Malme-3M 18.7 µM | HCT-116 21.5 µM | SNB-19 13.7 µM | RPMI-8226 30.5 µM | HCC 2998 16.9 µM | SW-620 19.3 µM | MCF7 16.8 µM | SR 36.3 µM | BT-549 22.3 µM | SN12C 22.8 µM | SK-MEL-28 28.6 µM

CCOC(=O)c1ncn(CCc2ccc(Cl)cc2)c1C
inactive: SK-MEL-5 85.9 µM | NCI-H460 > 100 µM | CCRF-CEM > 100 µM | MOLT-4 > 100 µM | UACC-257 > 100 µM | RXF 393 > 100 µM | Malme-3M > 100 µM | HCT-116 > 100 µM | SNB-19 > 100 µM | RPMI-8226 62.7 µM | HCC 2998 > 100 µM | SF-268 92.9 µM | SW-620 > 100 µM | MCF7 > 100 µM | SR 68.2 µM | BT-549 > 100 µM | SN12C > 100 µM | SK-MEL-28 > 100 µM

OC1CSCCSCCCSCCSC1
inactive: SK-MEL-5 > 100 µM | NCI-H460 > 100 µM | MOLT-4 > 100 µM | UACC-257 > 100 µM | RXF 393 > 100 µM | HCT-116 > 100 µM | T47D > 100 µM | SNB-19 > 100 µM | RPMI-8226 > 100 µM | HCC 2998 > 100 µM | SF-268 > 100 µM | SW-620 > 100 µM | MCF7 > 100 µM | BT-549 > 100 µM | SN12C > 100 µM | SK-MEL-28 > 100 µM

CC(=O)OCC(C)C1=C(O)C(=O)C2(C)C/C=C(/C)CC/C=C(\C)CCC(O)C(C)CCC12 (stereo not drawn)
inactive: SK-MEL-5 17.7 µM | NCI-H460 14.7 µM | CCRF-CEM 21.5 µM | MOLT-4 10 µM | UACC-257 18.6 µM | RXF 393 12.3 µM | Malme-3M 17.4 µM | HCT-116 18.8 µM | T47D 1.94 µM | SNB-19 18.4 µM | RPMI-8226 11.9 µM | SF-268 18 µM | SW-620 19.2 µM | MCF7 24.9 µM | SR 7.89 µM | SN12C 19 µM | SK-MEL-28 16.7 µM

Cc1cc2nc3c(C#N)c4c(c(Cl)n3c2cc1C)CCC4
inactive: SK-MEL-5 21.9 µM | NCI-H460 37.6 µM | MOLT-4 26 µM | UACC-257 36.7 µM | RXF 393 16.6 µM | Malme-3M 52.8 µM | HCT-116 16.1 µM | T47D 40.7 µM | RPMI-8226 16 µM | SF-268 23.9 µM | SW-620 19.6 µM | BT-549 22.5 µM | SN12C 18.6 µM | SK-MEL-28 29.2 µM

OC(c1ccoc1)c1cc2ccccc2s1 (stereo not drawn)
inactive: SK-MEL-5 > 10 µM | NCI-H460 > 10 µM | CCRF-CEM > 10 µM | MOLT-4 > 10 µM | UACC-257 > 10 µM | RXF 393 > 10 µM | HCT-116 > 10 µM | T47D > 10 µM | SNB-19 > 10 µM | RPMI-8226 > 10 µM | HCC 2998 > 10 µM | SF-268 > 10 µM | SW-620 > 10 µM | MCF7 > 10 µM | SR > 10 µM | SN12C > 10 µM | SK-MEL-28 > 10 µM

CN(CCNC(=O)c1nn(-c2ccc(Cl)cc2Cl)c2c1Cc1ccccc1-2)CCNC(=O)c1nn(-c2ccc(Cl)cc2Cl)c2c1Cc1ccccc1-2
inactive: SK-MEL-5 1.74 µM | NCI-H460 1.75 µM | CCRF-CEM 2.27 µM | MOLT-4 2.12 µM | UACC-257 2.12 µM | RXF 393 2.25 µM | Malme-3M 1.42 µM | HCT-116 2.1 µM | T47D 3.77 µM | SNB-19 3.71 µM | RPMI-8226 1.62 µM | HCC 2998 1.75 µM | SF-268 12.1 µM | SW-620 1.86 µM | MCF7 2.56 µM | BT-549 7.38 µM | SN12C 3.79 µM | SK-MEL-28 1.97 µM

NC(=O)c1cc(-c2ccc(-n3ccnc3)cc2)nnc1O
inactive: SK-MEL-5 > 100 µM | NCI-H460 > 100 µM | CCRF-CEM > 100 µM | MOLT-4 > 100 µM | UACC-257 > 100 µM | RXF 393 > 100 µM | Malme-3M > 100 µM | HCT-116 > 100 µM | SNB-19 > 100 µM | RPMI-8226 > 100 µM | HCC 2998 > 100 µM | SF-268 > 100 µM | SW-620 > 100 µM | MCF7 67.6 µM | SR > 100 µM | BT-549 > 100 µM | SN12C > 100 µM | SK-MEL-28 > 100 µM

Oc1cnnc2nc3ccccc3n12
inactive: SK-MEL-5 > 100 µM | NCI-H460 > 100 µM | CCRF-CEM > 100 µM | MOLT-4 > 100 µM | UACC-257 > 100 µM | RXF 393 > 100 µM | Malme-3M > 100 µM | HCT-116 > 100 µM | T47D > 100 µM | SNB-19 > 100 µM | HCC 2998 > 100 µM | SF-268 > 100 µM | SW-620 > 100 µM | MCF7 > 100 µM | BT-549 > 100 µM | SN12C > 100 µM | SK-MEL-28 > 100 µM
